A word on the EC50: it is the concentration giving half of the maximal effect. The term LC50 denotes the concentration that kills 50% of the test population.

Here are results for 5 compounds from ChEMBL document CHEMBL3045652, “Biorational glycol diesters as dietary toxins versus bioefficacy of sucrose octanoate against lepidopteran larvae” (Ind Crops Prod, 2012).

Converted amounts (≈) assume the structure as drawn.

The test system of experiment [1] is Spodoptera litura. Put plainly: Antifeedant activity against third-instar larval stage of Spodoptera litura fed with artificial diet containing compound assessed as relative growth rate at 6.25 mg/ml after 3 days (reference value: 1.37 +/- 0.12 mg/mg/day). The class given is functional.
For experiment [2], the system named is Spodoptera litura. Put plainly: Insecticidal activity against second-instar larval stage of Spodoptera litura fed with artificial diet containing compound assessed as growth inhibition after 7 days. The conditions noted are these: for EC50: 168 h. The class given is functional, organism-based.
Experiment [3] concerns Helicoverpa armigera. The experiment in a line: Antifeedant activity against third-instar larval stage of Helicoverpa armigera fed with artificial diet containing compound assessed as relative consumption rate at 7.15 mg/ml after 3 days (reference value: 1.88 +/- 0.14 mg/mg/day). The class given is functional.
For experiment [4], the system named is Helicoverpa armigera. The experiment in a line: Antifeedant activity against third-instar larval stage of Helicoverpa armigera fed with artificial diet containing compound assessed as efficiency index of ingested food at 7.15 mg/ml after 3 days (reference value: 52%). It counts as functional.
In experiment [5] the test system is Spodoptera litura. Put plainly: Antifeedant activity against third-instar larval stage of Spodoptera litura fed with artificial diet containing compound assessed as relative consumption rate at 6.25 mg/ml after 3 days (reference value: 2.13 +/- 0.18 mg/mg/day). The class given is functional.
The test system of experiment [6] is Helicoverpa armigera. Put plainly: Insecticidal activity against second-instar larval stage of Helicoverpa armigera fed with artificial diet containing compound assessed as growth inhibition after 7 days. The class given is functional, organism-based. The conditions noted are these: for EC50: 168 h.
In experiment [7] the test system is Spodoptera litura. Put plainly: Antifeedant activity against third-instar larval stage of Spodoptera litura fed with artificial diet containing compound assessed as efficiency index of ingested food at 6.25 mg/ml after 3 days (reference value: 64.5%). The class given is functional.
For experiment [8], the system named is Helicoverpa armigera. The experiment in a line: Antifeedant activity against third-instar larval stage of Helicoverpa armigera fed with artificial diet containing compound assessed as relative growth rate at 7.15 mg/ml after 3 days (reference value: 0.97 +/- 0.13 mg/mg/day). It counts as functional.
The test system of experiment [9] is Helicoverpa armigera. Put plainly: Insecticidal activity against second-instar larval stage of Helicoverpa armigera fed with artificial diet containing compound assessed as mortality after 7 days. The conditions noted are these: 168 h. It counts as functional.
Experiment [10] concerns Spodoptera litura. The experiment in a line: Insecticidal activity against second-instar larval stage of Spodoptera litura fed with artificial diet containing compound assessed as mortality after 7 days. It counts as functional. The conditions noted are these: 168 h.
Experiment [11] relates to Helicoverpa armigera. The experiment in a line: Antifeedant activity against third-instar larval stage of Helicoverpa armigera fed with artificial diet containing compound assessed as relative consumption rate at 9.82 mg/ml after 3 days (reference value: 1.88 +/- 0.14 mg/mg/day). It counts as functional.
Experiment [12] has as its system Spodoptera litura. Put plainly: Antifeedant activity against third-instar larval stage of Spodoptera litura fed with artificial diet containing compound assessed as efficiency index of ingested food at 8.32 mg/ml after 3 days (reference value: 64.5%). The class given is functional.
Experiment [13] deals with Spodoptera litura. The experiment in a line: Antifeedant activity against third-instar larval stage of Spodoptera litura fed with artificial diet containing compound assessed as relative consumption rate at 8.32 mg/ml after 3 days (reference value: 2.13 +/- 0.18 mg/mg/day). The class given is functional.
Experiment [14] has as its system Helicoverpa armigera. Put plainly: Antifeedant activity against third-instar larval stage of Helicoverpa armigera fed with artificial diet containing compound assessed as efficiency index of ingested food at 9.82 mg/ml after 3 days (reference value: 52%). The class given is functional.
The test system of experiment [15] is Spodoptera litura. The experiment in a line: Antifeedant activity against third-instar larval stage of Spodoptera litura fed with artificial diet containing compound assessed as relative growth rate at 8.32 mg/ml after 3 days (reference value: 1.37 +/- 0.12 mg/mg/day). The class given is functional.
Experiment [16] has as its system Helicoverpa armigera. The experiment in a line: Antifeedant activity against third-instar larval stage of Helicoverpa armigera fed with artificial diet containing compound assessed as relative growth rate at 9.82 mg/ml after 3 days (reference value: 0.97 +/- 0.13 mg/mg/day). The class given is functional.
The test system of experiment [17] is Helicoverpa armigera. Put plainly: Antifeedant activity against third-instar larval stage of Helicoverpa armigera fed with artificial diet containing compound assessed as relative consumption rate at 8.21 mg/ml after 3 days (reference value: 1.88 +/- 0.14 mg/mg/day). The class given is functional.
Experiment [18] has as its system Helicoverpa armigera. The experiment in a line: Antifeedant activity against third-instar larval stage of Helicoverpa armigera fed with artificial diet containing compound assessed as relative growth rate at 8.21 mg/ml after 3 days (reference value: 0.97 +/- 0.13 mg/mg/day). It counts as functional.
For experiment [19], the system named is Spodoptera litura. The experiment in a line: Antifeedant activity against third-instar larval stage of Spodoptera litura fed with artificial diet containing compound assessed as efficiency index of ingested food at 5.9 mg/ml after 3 days (reference value: 64.5%). The class given is functional.
Experiment [20] has as its system Helicoverpa armigera. The experiment in a line: Antifeedant activity against third-instar larval stage of Helicoverpa armigera fed with artificial diet containing compound assessed as efficiency index of ingested food at 8.21 mg/ml after 3 days (reference value: 52%). The class given is functional.
In experiment [21] the test system is Spodoptera litura. Put plainly: Antifeedant activity against third-instar larval stage of Spodoptera litura fed with artificial diet containing compound assessed as relative growth rate at 5.9 mg/ml after 3 days (reference value: 1.37 +/- 0.12 mg/mg/day). The class given is functional.
Experiment [22] relates to Spodoptera litura. Put plainly: Antifeedant activity against third-instar larval stage of Spodoptera litura fed with artificial diet containing compound assessed as relative consumption rate at 5.9 mg/ml after 3 days (reference value: 2.13 +/- 0.18 mg/mg/day). The class given is functional.
Experiment [23] concerns Spodoptera litura. Put plainly: Antifeedant activity against third-instar larval stage of Spodoptera litura fed with artificial diet containing compound assessed as efficiency index of ingested food at 5.6 mg/ml after 3 days (reference value: 64.5%). The class given is functional.
Experiment [24] deals with Helicoverpa armigera. Put plainly: Antifeedant activity against third-instar larval stage of Helicoverpa armigera fed with artificial diet containing compound assessed as relative growth rate at 7.38 mg/ml after 3 days (reference value: 0.97 +/- 0.13 mg/mg/day). The class given is functional.
The subject of experiment [25] is Helicoverpa armigera. Put plainly: Antifeedant activity against third-instar larval stage of Helicoverpa armigera fed with artificial diet containing compound assessed as relative consumption rate at 7.38 mg/ml after 3 days (reference value: 1.88 +/- 0.14 mg/mg/day). The class given is functional.
Experiment [26] concerns Spodoptera litura. Put plainly: Antifeedant activity against third-instar larval stage of Spodoptera litura fed with artificial diet containing compound assessed as relative growth rate at 5.6 mg/ml after 3 days (reference value: 1.37 +/- 0.12 mg/mg/day). It counts as functional.
For experiment [27], the system named is Helicoverpa armigera. Put plainly: Antifeedant activity against third-instar larval stage of Helicoverpa armigera fed with artificial diet containing compound assessed as efficiency index of ingested food at 7.38 mg/ml after 3 days (reference value: 52%). It counts as functional.
For experiment [28], the system named is Spodoptera litura. Put plainly: Antifeedant activity against third-instar larval stage of Spodoptera litura fed with artificial diet containing compound assessed as relative consumption rate at 5.6 mg/ml after 3 days (reference value: 2.13 +/- 0.18 mg/mg/day). It counts as functional.
Experiment [29] deals with Helicoverpa armigera. The experiment in a line: Antifeedant activity against third-instar larval stage of Helicoverpa armigera fed with artificial diet containing compound assessed as relative consumption rate at 9.88 mg/ml after 3 days (reference value: 1.88 +/- 0.14 mg/mg/day). The class given is functional.
Experiment [30] concerns Helicoverpa armigera. The experiment in a line: Antifeedant activity against third-instar larval stage of Helicoverpa armigera fed with artificial diet containing compound assessed as efficiency index of ingested food at 9.88 mg/ml after 3 days (reference value: 52%). It counts as functional.
In experiment [31] the test system is Spodoptera litura. The experiment in a line: Antifeedant activity against third-instar larval stage of Spodoptera litura fed with artificial diet containing compound assessed as relative consumption rate at 8.25 mg/ml after 3 days (reference value: 2.13 +/- 0.18 mg/mg/day). It counts as functional.
Experiment [32] deals with Spodoptera litura. The experiment in a line: Antifeedant activity against third-instar larval stage of Spodoptera litura fed with artificial diet containing compound assessed as relative growth rate at 8.25 mg/ml after 3 days (reference value: 1.37 +/- 0.12 mg/mg/day). The class given is functional.
The test system of experiment [33] is Helicoverpa armigera. The experiment in a line: Antifeedant activity against third-instar larval stage of Helicoverpa armigera fed with artificial diet containing compound assessed as relative growth rate at 9.88 mg/ml after 3 days (reference value: 0.97 +/- 0.13 mg/mg/day). It counts as functional.
Experiment [34] deals with Spodoptera litura. The experiment in a line: Antifeedant activity against third-instar larval stage of Spodoptera litura fed with artificial diet containing compound assessed as efficiency index of ingested food at 8.25 mg/ml after 3 days (reference value: 64.5%). It counts as functional.

For `CCCCCCCC(=O)OCC(C)OC(=O)CCCCCCC` (stereo not given), the Activity came to 0.88 mg/mg/day with Spodoptera litura [1], 1.86 mg/mg/day in the experiment on Helicoverpa armigera [3], 2.21 mg/mg/day with Spodoptera litura [5] and 0.7 mg/mg/day in the experiment on Helicoverpa armigera [8]. Further, the “growth inhibition (GI)” value in the experiment on Spodoptera litura [2] and with Helicoverpa armigera [6] was “Dose-dependent effect” throughout. Moreover, the values for the EC50 with Spodoptera litura [2] and in the experiment on Helicoverpa armigera [6] were 3820 µg/mL (≈ 11.6 mM) and 4380 µg/mL (≈ 13.3 mM), respectively. For the same compound, the ECI in the experiment with Helicoverpa armigera [4] was 37.9%; with Spodoptera litura [7], 18%. In addition, the LC50 in the experiment with Helicoverpa armigera [9] and in the experiment on Spodoptera litura [10] was 2000 µg/mL (≈ 6.09 mM) each time.

In the case of `CCCCC(=O)OCCCCCOC(=O)CCCC` [PENTANE-1,5-DIPENTANOATE], the “growth inhibition (GI)” value with Spodoptera litura [2] and in the experiment on Helicoverpa armigera [6] was “Dose-dependent effect” each time. Also, the EC50 amounted to 5010 µg/mL (≈ 18.4 mM) in the experiment with Spodoptera litura [2] and 5880 µg/mL (≈ 21.6 mM) with Helicoverpa armigera [6]. For the same compound, the Activity came to 1.79 mg/mg/day in the experiment on Helicoverpa armigera [11], 2.02 mg/mg/day with Spodoptera litura [13], 0.94 mg/mg/day in the experiment on Spodoptera litura [15] and 0.66 mg/mg/day with Helicoverpa armigera [16]. Moreover, the ECI was found to be 44% with Spodoptera litura [12] and 37.2% in the experiment on Helicoverpa armigera [14]. For the same compound, the median lethal concentration (LC50) in the experiment on Helicoverpa armigera [9] and in the experiment with Spodoptera litura [10] was 2000 µg/mL (≈ 7.34 mM) each time.

Turning to `CCCC(=O)OCC(C)OC(=O)CCC` (stereo not given), the “growth inhibition (GI)” value in the experiment with Spodoptera litura [2] and in the experiment on Helicoverpa armigera [6] was “Dose-dependent effect” in each case. Moreover, the figures for the EC50 in the experiment on Spodoptera litura [2] and with Helicoverpa armigera [6] were 4210 µg/mL (≈ 19.5 mM) and 5670 µg/mL (≈ 26.2 mM), respectively. The Activity amounted to 1.77 mg/mg/day in the experiment on Helicoverpa armigera [17], 0.67 mg/mg/day in the experiment on Helicoverpa armigera [18], 1.04 mg/mg/day in the experiment with Spodoptera litura [21] and 1.98 mg/mg/day with Spodoptera litura [22]. Besides, the ECI is on record as 12% in the experiment on Spodoptera litura [19] and 38.2% with Helicoverpa armigera [20]. Moreover, the LC50 in the experiment with Helicoverpa armigera [9] and in the experiment with Spodoptera litura [10] was 2000 µg/mL (≈ 9.25 mM) each time.

Consider `CC(COC(=O)C(C)C)OC(=O)C(C)C` (stereo not given), for which the “growth inhibition (GI)” value with Spodoptera litura [2] and in the experiment with Helicoverpa armigera [6] was “Dose-dependent effect” throughout. For the same compound, the EC50 in the experiment on Spodoptera litura [2] was determined as 5210 µg/mL (≈ 24.1 mM); in the experiment on Helicoverpa armigera [6], 7340 µg/mL (≈ 33.9 mM). The ECI is on record as 13% in the experiment with Spodoptera litura [23] and 30.4% with Helicoverpa armigera [27]. The Activity was 0.58 mg/mg/day in the experiment with Helicoverpa armigera [24], 1.91 mg/mg/day in the experiment with Helicoverpa armigera [25], 1.09 mg/mg/day with Spodoptera litura [26] and 2.12 mg/mg/day in the experiment with Spodoptera litura [28]. The 50% lethal concentration (LC50) in the experiment on Helicoverpa armigera [9] and with Spodoptera litura [10] was 2000 µg/mL (≈ 9.25 mM) throughout.

For the compound `CCCC(CC)C(=O)OCCCCCOC(=O)C(CC)CCC` (stereo not given) [PENTANE-1,5-DI-(2-ETHYLHEXANOATE)], the Activity in the experiment on Helicoverpa armigera [29] is recorded as 1.8 mg/mg/day; in the experiment on Spodoptera litura [31], 1.99 mg/mg/day; in the experiment with Spodoptera litura [32] it was 1.06 mg/mg/day; in the experiment with Helicoverpa armigera [33], 0.72 mg/mg/day. For the same compound, the “growth inhibition (GI)” value in the experiment on Spodoptera litura [2] and in the experiment with Helicoverpa armigera [6] was “Dose-dependent effect” each time. Moreover, the EC50 with Spodoptera litura [2] came to 7850 µg/mL (≈ 23.9 mM); with Helicoverpa armigera [6], 5560 µg/mL (≈ 16.9 mM). For the same compound, the figures for the ECI in the experiment on Helicoverpa armigera [30] and in the experiment with Spodoptera litura [34] were 40% and 46%, respectively. Moreover, the LC50 with Helicoverpa armigera [9] and in the experiment on Spodoptera litura [10] was 2000 µg/mL (≈ 6.09 mM) throughout.
